The source of these data is US20240294586A1, “TENASCIN-C AUTOANTIGENIC EPITOPES IN RHEUMATOID ARTHRITIS” (Benaroya Research Institute at Virginia Mason, priority 2020, published 2024).

One test relates to memory CD4+ T cells. Put plainly: Ex vivo detection of peptide-reactive T cells by multiplex HLA class II tetramers. It counts as cell-based, human. The following applies: peripheral blood, RA n=9, HC n=7. How it is done: Recombinant HLA-DRB1*04:01 protein was produced by the BRI Tetramer Core (Benaroya Research Institute, Seattle, WA) as previously described (Novak et al. 1999 J Clin Inv.104:R63). Soluble HLA-DRB1*04:01 monomer was purified from insect cell culture supernatants and biotinylated at a sequence-specific site using biotin ligase (Avidity) prior to dialysis into phosphate storage buffer. The biotinylated monomer was loaded with 0.2 mg/ml of peptide by incubating at 37° C. for 72 hours in the presence of 2.5 mg/ml n-octyl-β-D-glucopyranoside and 1 mM Pefabloc SC (Sigma-Aldrich). […]
Ex vivo tetramer staining and enrichment was accomplished using previously published protocols (Rims et al. 2019 Arthritis Rheumatol. 71:518; Uchtenhagen et al. 2016 Nat Comm 7:12614). […] Samples were run on a BD LSRII flow cytometer, and data was analyzed using FlowJo software version 10. The frequency (F) of epitope-specific T cells per million memory CD4+ T cells was calculated as follows: F=(1,000,000×tetramer-positive events from enriched tube)/(100×number of memory CD4+ T cells from the “Pre” fraction). […] These served as the parent populations from which one of the four tetramer positive T-cell populations were then gated on and analyzed for surface receptor expression. […]

Test [1] addresses HLA-DRB1*04:01 (Homo sapiens, UniProt P01903+P01911, A100K/A169T/F76Y/I96L/K127E/L162R/M171V/N62H/P40V/Q125Y/R42H/S133A/S149N/S66Y/V115G/V209L/W38E). Put plainly: Peptide competition binding assay to HLA-DRB1*04:01. The following applies: competition with 0.01 μM biotinylated influenza HA306-318.
For test [2], the system named is antibodies in sera from RA and HC subjects. Put plainly: ELISA for detection of serum antibodies against peptides. The format is binding, human. To be noted: for antibody reactivity relative to threshold for positivity: Autoantibody Cohort 2. How it is done: ELISAs were used to detect antibodies against citrullinated peptides in sera from patients in Autoantibody Cohorts 1 and 2 (FIG. 6). Peptides used in the assay were synthesized by either GenScript or Pepceutical and are described in FIG. 12. The ELISAs were conducted as previously described (Riedl et al. 2001 Int J Colorectal Dis.16:285; Quarona et al. 2013 Cytometry Part B, Clinical cytometry 84:207). In brief, 96-well Nunc Maxisorp plates were coated with 10 μg/ml peptide in PBS, blocked with 2% BSA and incubated with sera diluted 1:100. Bound antibodies were detected with an HRP-conjugated anti-human IgG Fc monoclonal antibody (6043HRP, Stratech). A standard curve of positive sera was used to calculate relative antibody titers in arbitrary units (AU) for each sample. The CCP2 ELISA for Autoantibody Cohort 1 was performed as by the manufacturer's instruction (FCCP600, Axis-Shield). Cross-reactivity was analyzed in human sera that were reactive to both cTNC56 or cTNC17 and cTNC5. Sera were diluted 1:100, incubated with 1, 10 and 100 μg/ml of peptides for 2 hours, centrifuged at 10,000 g for 10 min and the supernatant added to peptide-coated plates for analysis by ELISA as described above. Positivity was defined by the cut-off of the 98% percentile of healthy control samples from Autoantibody Cohort 1.
(In an ELISA, binding on a coated surface is turned into a signal by an enzyme label.)

Test [3] has as its system peripheral blood mononuclear cells (PBMC) from HLA-DRB1*04:01 positive subjects. Put plainly: In vitro expansion of peptide-specific T cells and HLA class II tetramer staining. It counts as cell-based, human. To be noted: two weeks of in vitro expansion, 10 μg/ml peptide. How it is done: Recombinant HLA-DRB1*04:01 protein was produced by the BRI Tetramer Core (Benaroya Research Institute, Seattle, WA) as previously described (Novak et al. 1999 J Clin Inv.104:R63). Soluble HLA-DRB1*04:01 monomer was purified from insect cell culture supernatants and biotinylated at a sequence-specific site using biotin ligase (Avidity) prior to dialysis into phosphate storage buffer. The biotinylated monomer was loaded with 0.2 mg/ml of peptide by incubating at 37° C. for 72 hours in the presence of 2.5 mg/ml n-octyl-β-D-glucopyranoside and 1 mM Pefabloc SC (Sigma-Aldrich). Peptide loaded monomers were conjugated into tetramers using fluorescently labeled streptavidin (Invitrogen) for 6-18 hours at room temperature at a molar ratio of 8:1.
Cryopreserved PBMCs from RA and healthy subjects were cultured at 5×10^6 cells/well in a 48 well plate in RPMI-1640+10% HPS with 10 μg/ml of peptide. IL-2 (Novartis) was added at 325 IU/ml on day 6. On day 14, cells were stained for expression of tetramer-PE, CD25 APC (BD) and CD4 FITC (BioLegend), and then characterized by immunocytofluorimetry on a FACSCanto™ (BD). The data were analyzed by FlowJo software version 10.

The subject of test [4] is CCP-reactive antibody (ACPA) pools from plasma and synovial fluid. Put plainly: Extracellular matrix peptide microarray with polyclonal CCP-pools. The format is binding, human. The following applies: ACPA pools at 15 μg/ml. On the procedure: The custom-made microarray was performed as previously described (Steen et al. 2019 Arthritis Rheumatol. 71:196). In brief, 16-aa long peptides that covered all arginine residues of 1,610 extracellular matrix proteins and RA related proteins were synthesized in situ (Roche NimbleGen). For tenascin C, there were a total of 217 peptides including both native and citrullinated variants of each peptide synthesized. Samples tested for reactivity against TNC derived peptides included synovial and plasma ACPA pools containing CCP-reactive antibodies from 26 and 38 RA patients, respectively (Ossipova et al. 2014 Arthritis Res Ther. 16:R167; Sahlström et al. 2020 Arthritis Rheumatol. 72:1643) Paired synovial fluid and serum samples from one RA patient taken at two time points 10 years apart were also screened. ACPA pools were run at a concentration of 15 μg/ml, whereas synovial fluid and plasma or serum samples were diluted 1/100 and tested for citrulline reactivity using a NimbleGen MS200 Scanner (Roche NimbleGen). A peptide signal intensity variation (spot size) of pixels was used as a basis for calculating the median fluorescence intensities. The cutoff for positive signals was defined as 5 times the fluorescence intensity of the 98th percentile of values for a set of monoclonal antibodies without citrulline reactivity. […]

Test [5] addresses T1, HLA-DRB1*04:01 (human).
T1 construct: MHC class II molecule; also called HLA-DR protein; recombinant HLA-DRB1*04:01 protein
Put plainly: peptide competition assay against biotinylated HA306-318.

Where no end group is shown, it is not given here. [ ]: non-standard residue; d: D form. Cit = NC(=O)NCCC[C@H](N)C(=O)O

On to “MP 97-116: influenza peptide used as positive control (VKLYRKLKREITFHGAKEIS; Matrix protein 1; UniProt P03485 97-116, looked up, fragment) [reference compound]”, for which, in the test with memory CD4+ T cells, the “frequency of peptide-specific memory CD4+ T cells in RA compared to HC subjects” value is “did not differ between RA and HC subjects”.

As to “arg-TNC17: corresponding unmodified arginine-containing peptide of cit-TNC17 (VSLISRRGDMSSNPA)”, the “binding to HLA-DRB1*04:01” value with HLA-DRB1*04:01 [1] is recorded as “did not”. Also, the “antibody reactivity relative to threshold for positivity” value in test [2] is listed as “below the threshold for positivity in almost all subjects”.

On to “arg-TNC22: corresponding unmodified arginine-containing peptide of cit-TNC22 (FDRYRLNYSLPTGQW)”, for which the “binding to HLA-DRB1*04:01” value in the test with HLA-DRB1*04:01 [1] was “bound”. Moreover, the “immunogenicity: epitope-specific T cell expansion by HLA Class II tetramer staining” value in test [3] was “ability to elicit T cell responses”.

In the case of “arg-TNC45: corresponding unmodified arginine-containing peptide of cit-TNC45 (PDGFRLSWTADEGVF)”, the “binding to HLA-DRB1*04:01” value with HLA-DRB1*04:01 [1] is recorded as “bound”. For the same molecule, in test [3], the “immunogenicity: epitope-specific T cell expansion by HLA Class II tetramer staining” value is given as “ability to elicit T cell responses”.

For the molecule “arg-TNC56: corresponding unmodified arginine-containing peptide of cit-TNC56 (QGQYELRVDLRDHGE)”, the “binding to HLA-DRB1*04:01” value with HLA-DRB1*04:01 [1] is reported as “did not”. In addition, the “antibody reactivity relative to threshold for positivity” value in test [2] was “below the threshold for positivity in almost all subjects”.

For the molecule “cit-TNC5: previously published citrullinated peptide from the C-terminal FBG domain of TNC, used as positive control (CEHSIQFAEMKL[Cit]PSNF[Cit]NLEG[Cit][Cit]KRC; not fully specified; cysteine pairing not given here) [reference compound]”, in test [2] (Autoantibody Cohort 1, HLA-DRB1*04:01 and CCP positive RA n=17), the “RA sera with antibodies to the peptide” value is recorded as 47%. Also, the “antibody titers / reactivity in RA sera” value in test [2] (Autoantibody Cohort 1, sera diluted 1:100) is on record as “highest”. In test [4], the “antibody reactivity in plasma CCP-pool” value is given as “could be verified” and the “antibody reactivity in synovial fluid derived antibody pools” value was “strong positive signal”.

B1: arg-TNC56 (peptide)
peptide: QGQYELRVDLRDHGE
modifications: not fully specified
notes: See note of arg-TNC17
In the case of B1, the binding result with HLA-DRB1*04:01 [5] is on record as “no binding”.

B2: arg-TNC17 (peptide)
peptide: VSLISRRGDMSSNPA
modifications: not fully specified
With B2, the binding result with HLA-DRB1*04:01 [5] is given as “no binding”.
